pIC50, pKi: −log10 of the molar value.

As usually defined, the pIC50 is the negative decadic logarithm of the IC50, by convention in mol/L. A word on the pKi: it is the negative decadic logarithm of the Ki, by convention in mol/L. As usually defined, the inhibition is the share of the control response that was lost under treatment.

A short description of experiment [1]: Inhibition of hydrogen potassium ATPase in goat stomach mucosal membrane assessed as decrease in inorganic phosphate production using ATP as substrate after 10 to 15 mins by spectrophotometric analysis. The experiment is classed as cell membranes, Capra hircus.
For a further experiment, the species on record is Capra hircus. The experiment can be described thus: Inhibition of hydrogen potassium ATPase in goat stomach mucosal membrane assessed as decrease in inorganic phosphate production using ATP as substrate after 10 to 15 mins by spectrophotometric analysis relative to omeprazole. Set-up: concentration or dose not given beside the values. The experiment is classed as cell membranes.

Experiment [2] deals with Erythrocyte. The experiment can be described thus: Anti-inflammatory activity in human RBC assessed as membrane stabilization relative to control. The class given is functional. Also on record: concentration or dose not given beside the values.
Experiment [3] relates to Erythrocyte. The experiment can be described thus: Anti-inflammatory activity in human RBC assessed as membrane stabilization. The class given is functional, cell-based.

In the case of `COCCCOc1ccnc(COc2ccc(CS(=O)(=O)c3nc4ccccc4[nH]3)cc2OC)c1C`, the pIC50 (in experiment [1]; in the experiment with Erythrocyte [3]) was 6.45 in each case. Further, the pKi in experiment [1] was 5.91 to 7.60. For the same molecule, the inhibition in the experiment listed under Capra hircus was determined as 81%. Further, the Activity with Erythrocyte [2] was 88.45%.
Consider `COc1cc(CS(=O)(=O)c2nc3cc(OC(F)F)ccc3[nH]2)ccc1OCc1ncc(C)c(OC)c1C`, for which, in experiment [1], the pIC50 is 5.87 and the negative logarithm of the Ki (pKi) is 5.91 to 7.60. Further, the inhibition in the experiment listed under Capra hircus was found to be 73.2%. For the same molecule, the Activity with Erythrocyte [2] is on record as 73.56%. Also, in the experiment with Erythrocyte [3], the negative-log IC50 (pIC50) was 5.85.
`COc1ccc2[nH]c(S(=O)(=O)Cc3ccc(OCc4nccc(OCC(F)(F)F)c4C)c(OC)c3)nc2c1`: in experiment [1], the pIC50 is 5.84 and the negative-log Ki (pKi) was 5.91 to 7.60. The inhibition in the experiment listed under Capra hircus amounted to 72%. Also, in the experiment on Erythrocyte [2], the Activity stood at 71.58%. Further, the pIC50 in the experiment on Erythrocyte [3] was 5.75.
`O=C(O)Cc1ccccc1Nc1c(Cl)cccc1Cl` [DICLOFENAC]: the Activity in the experiment with Erythrocyte [2] worked out at 82.24%. Also, the pIC50 in the experiment on Erythrocyte [3] is 6.03.
As for `COc1ccc2[nH]c([S+]([O-])Cc3ncc(C)c(OC)c3C)nc2c1` (centres undefined) [OMEPRAZOLE], the pIC50 in experiment [1] was 5.99 to 6.01. Also, the inhibition in the experiment listed under Capra hircus is 82.1%.
Consider `COc1cc(CS(=O)(=O)c2nc3ccccc3[nH]2)ccc1OCc1nccc(OCC(F)(F)F)c1C`, for which, in experiment [1], the pIC50 was 5.89 and the pKi is 5.91 to 7.60. Moreover, the inhibition in the experiment listed under Capra hircus was found to be 74.9%. Further, the Activity with Erythrocyte [2] amounted to 74.21%. For the same molecule, in the experiment with Erythrocyte [3], the pIC50 was 5.88.
For `COc1ccc2[nH]c(S(=O)(=O)Cc3ccc(OCc4ncc(C)c(OC)c4C)c(OC)c3)nc2c1` the same measures were 5.94, 5.91 to 7.60, 76.3%, 76.23% and 5.92.
For `COc1cc(CS(=O)(=O)c2nc3cc(OC(F)F)ccc3[nH]2)ccc1OCc1nccc(OC)c1OC` the same measures were 6.70, 5.91 to 7.60, 94.4%, 94.11% and 6.73.
For `COc1cc(CS(=O)(=O)c2nc3cc(OC(F)F)ccc3[nH]2)ccc1OCc1nccc(OCC(F)(F)F)c1C` the same measures were 5.78, 5.91 to 7.60, 70.6%, 70.28% and 5.73.
As to `COc1ccc2[nH]c(S(=O)(=O)Cc3ccc(OCc4nccc(OC)c4OC)c(OC)c3)nc2c1`, in experiment [1], the negative-log IC50 (pIC50) is 6.04 and the pKi is 5.91 to 7.60. Further, the inhibition in the experiment listed under Capra hircus turned out to be 78.2%. Besides, the Activity in the experiment on Erythrocyte [2] is listed as 78.42%. In addition, the pIC50 in the experiment with Erythrocyte [3] was 6.05.
The corresponding values for `COCCCOc1ccnc(COc2ccc(CS(=O)(=O)c3nc4cc(OC(F)F)ccc4[nH]3)cc2OC)c1C` are 6.91, 5.91 to 7.60, 96.3%, 96.42% and 6.85.
For `COCCCOc1ccnc(COc2ccc(CS(=O)(=O)c3nc4cc(OC)ccc4[nH]3)cc2OC)c1C` the same measures were 6.09, 5.91 to 7.60, 80.2%, 79.41% and 6.09.
`COc1cc(CS(=O)(=O)c2nc3ccccc3[nH]2)ccc1OCc1ncc(C)c(OC)c1C`: in experiment [1], the negative-log IC50 (pIC50) is 5.77 and the pKi was 5.91 to 7.60. Besides, in the experiment filed under Capra hircus, the inhibition turned out to be 70.5%. In addition, the Activity in the experiment with Erythrocyte [2] is reported as 70.41%. For the same molecule, the pIC50 in the experiment on Erythrocyte [3] was 5.74.
For `COc1cc(CS(=O)(=O)c2nc3ccccc3[nH]2)ccc1OCc1nccc(OC)c1OC` the same measures were 6.64, 5.91 to 7.60, 92%, 91.12% and 6.67.
